Values quoted from earlier work, collected in patent publication US20150141549A1, “ANTIBIOTIC PARTICLES AND PRODUCTION METHOD THEREOF” (Japan EnviroChemicals, Ltd., priority 2012, published 2015).

SMILES: CCCCNC(=O)OCC#CI [IPBC, 3-iodo-2-propynylbutylcarbamate]
- water solubility: 150 ppm
